Laboratory results: PubChem BioAssay (NCI)
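Interpolation was linear, between the two tested concentrations surrounding the appropriate level; five concentrations were tested over 48 hours in 96-well plates. GI50 marks 50% less growth. TGI: concentration producing complete growth inhibition.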

Columns and labels:
Test in all cases: NCI anticancer screen, dose series, 48 h
[1] = test system: OVCAR-3 ovarian
[2] = test system: MDA-MB-231 breast
[3] = test system: SR leukemia
[4] = test system: HCT-15 colon
[5] = test system: A549 NSCLC
[6] = test system: SF-268 CNS
[7] = test system: EKVX NSCLC
[8] = test system: MALME-3M melanoma
[9] = test system: T-47D breast
[10] = test system: OVCAR-4 ovarian

SMILES	GI50 [1]	TGI [1]	GI50 [2]	TGI [2]	GI50 [3]	TGI [3]	GI50 [4]	TGI [4]	GI50 [5]	TGI [5]	GI50 [6]	TGI [6]	GI50 [7]	TGI [7]	GI50 [8]	TGI [8]	GI50 [9]	TGI [9]	GI50 [10]	TGI [10]
CN1CCN(c2ccc(-c3cccc(CN4CCOCC4)c3)cc2NC(=O)c2c[nH]c(=O)cc2C(F)(F)F)CC1	31.7 µM	> 100 µM	16.3 µM	54.6 µM	26.4 µM	63.7 µM	50.3 µM	> 100 µM	53.5 µM	> 100 µM	62.5 µM	> 100 µM	69.7 µM	> 100 µM	21.6 µM	51.4 µM	31.3 µM	> 100 µM	55.9 µM	> 100 µM
N#CC(C(=O)O)C(c1c(Cl)cccc1Cl)C(C#N)C(=O)O (stereo not given)	–	> 100 µM	–	> 100 µM	–	> 100 µM	–	> 100 µM	–	> 100 µM	–	> 100 µM	–	> 100 µM	–	> 100 µM	–	> 100 µM	–	> 100 µM
Cc1ccc(-n2c3c(c4c(CN)c(O)ccc42)CCc2ccccc2C3=O)cc1	10.2 µM	22.3 µM	14.8 µM	29.2 µM	2.33 µM	5.38 µM	15.9 µM	30.9 µM	18.7 µM	35.8 µM	9.06 µM	28.3 µM	12.4 µM	28.5 µM	4.58 µM	17.9 µM	22.8 µM	50.1 µM	20.8 µM	46 µM
Cc1ccccc1C[P+](c1ccccc1)(c1ccccc1)c1ccccc1	1 µM	> 100 µM	2.04 µM	> 100 µM	2.02 µM	> 100 µM	27.9 µM	> 100 µM	3.72 µM	> 100 µM	1.89 µM	> 100 µM	0.873 µM	> 100 µM	4.72 µM	> 100 µM	0.294 µM	14.9 µM	0.64 µM	9.39 µM
O=S(=O)(NCCNc1cc(-c2cn(-c3ccccc3)nc2-c2cccc(O)c2)ccn1)c1ccc(Br)cc1	2.01 µM	4.09 µM	1.9 µM	4.59 µM	1.97 µM	5.58 µM	1.8 µM	4.39 µM	3.6 µM	15 µM	2.25 µM	7.06 µM	2.76 µM	19.1 µM	2.08 µM	5.08 µM	2.22 µM	7.71 µM	2.32 µM	13.7 µM
CCOC(=O)C(=O)C(/C(=N/N(C)C)C(=O)Nc1ccc(C)cc1C)c1nc2ccccc2[nH]c1=O (stereo not given)	–	> 100 µM	–	> 100 µM	–	> 100 µM	–	> 100 µM	–	> 100 µM	–	> 100 µM	–	> 100 µM	–	> 100 µM	–	> 100 µM	–	> 100 µM
CCCCCCCCCCCCC(NC(C)=O)(C(=O)OCC)C(=O)OCC	11.7 µM	25.4 µM	12.6 µM	26.7 µM	6.94 µM	48.2 µM	9.38 µM	23 µM	14.3 µM	32.5 µM	13.4 µM	28.5 µM	6.99 µM	26.1 µM	12.5 µM	29.1 µM	5.43 µM	20.7 µM	10.4 µM	22.2 µM
Cc1ccc2c(c1)-c1oc(=O)c(-c3cc4ccccc4oc3=O)cc1C(O)O2 (stereo not given)	22.2 µM	42.1 µM	15.2 µM	43.7 µM	22.9 µM	82.8 µM	23.9 µM	48.8 µM	29.9 µM	> 100 µM	34.2 µM	> 100 µM	11.8 µM	25.7 µM	10.2 µM	28.2 µM	21.3 µM	41.7 µM	36.3 µM	> 100 µM
CC(C)=CCc1c(O)c(C(=O)CC(C)C)c(O)c2c(-c3ccccc3)cc(=O)oc12	4.33 µM	> 50 µM	8.26 µM	22 µM	12.8 µM	> 50 µM	7.11 µM	> 50 µM	12 µM	> 50 µM	12.5 µM	> 50 µM	11.5 µM	> 50 µM	10.8 µM	33.9 µM	11.3 µM	42.1 µM	9.98 µM	35.6 µM
COc1ccc(-c2cc(-c3ccc(Cl)cc3)nc(SCCCCCCC(=O)NO)n2)cc1	1.49 µM	6.85 µM	1.74 µM	8.89 µM	0.59 µM	3.66 µM	1.46 µM	7.72 µM	1.62 µM	10.7 µM	1.79 µM	6.54 µM	2.61 µM	22.3 µM	1.14 µM	5.5 µM	1.42 µM	> 50 µM	2.05 µM	43.1 µM
COC(=O)CCCNC(=O)C(=O)c1c(O)c(O)c(C(C)C)c2cc(C)c(-c3c(C)cc4c(C(C)C)c(O)c(O)c(C(=O)C(=O)NCCCC(=O)OC)c4c3O)c(O)c12	0.32 µM	3.46 µM	0.743 µM	2.99 µM	0.706 µM	3.17 µM	0.587 µM	4.45 µM	0.255 µM	4.01 µM	0.435 µM	5.13 µM	0.317 µM	3.79 µM	0.902 µM	12.9 µM	0.558 µM	3.06 µM	0.23 µM	27 µM
